Cytotoxicity data for 41 molecules are collected here from ChEMBL document CHEMBL3507680, “University of Dundee, Gates Library screen for HepG2 cell viability”.

This series in a line: Human HepG2 cell viability assay in 384 well format. The class given is toxicity, cell-based. The arrangement: dose 125 nL, time 70.5 hour; concentration not given beside the values. Conditions: HepG2 cells, read-out: Inhibition.

Turning to `Cc1nn(C)c(N2CCCN(C)CC2)c1CNC(=O)C(C)(C)C`, the cytotoxicity at 70.5 h is -0.257%. Turning to `CCOC(=O)c1cnn(C2CCN(C(=O)CCC(C)C)CC2)c1N`, the cytotoxicity at 70.5 h amounted to 0.0774%. `CN(C(=O)COc1ccc(-c2noc(C3CCCO3)n2)cc1)C1CC1` (stereo unspecified): the cytotoxicity at 70.5 h came to 0.982%.

With `CC(Nc1cccc2c1OCCO2)C(=O)Nc1cccc(C#N)c1` (stereo unspecified), the cytotoxicity at 70.5 h is 3.49%. Then `CC(C)(C)S(=O)(=O)CCNC(=O)c1ccc2cc[nH]c2c1`, with -0.00861%; and `CCn1nc(C)cc1C(=O)NCc1cc(N(C)C)nc2ccccc12`, with 9.21%. For the molecule `COC(=O)N1CCC(Nc2ccc(C#N)c(Cl)c2)C1` (stereo unspecified), the cytotoxicity at 70.5 h stood at 1.68%. As to `CCOCCC1(CNC(=O)c2ccc(C)nc2)CCCC1`, the cytotoxicity at 70.5 h is 0.601%.

As for `CCc1nc(C(=O)N(CC)CC(=O)Nc2cc(Cl)ccc2C)c[nH]1`, the cytotoxicity at 70.5 h was -4.72%.

With `Cn1cc(CC2CC(=O)N(Cc3ccc(Cl)cc3)C2=O)cn1` (stereo unspecified), the cytotoxicity at 70.5 h turned out to be 24.4%.

For the molecule `CCOCCC1(CNC(=O)c2ccncc2Cl)CCC1`, the cytotoxicity at 70.5 h is -2.65%. Take `COc1cccc(NC(=O)CCCc2nc(C(C)C)no2)c1`: the cytotoxicity at 70.5 h came out at 5.69%. In the case of `Cc1nn(C)c(Cl)c1C1CCCN1CC(=O)N1CCCCC1` (stereo unspecified), the cytotoxicity at 70.5 h stood at 26.9%. As for `CCCn1cc(NC2CCSCC2)cn1`, the cytotoxicity at 70.5 h came to 2.92%. In the case of `COc1ccc(CNCC2CN(C3CC3)CCO2)cc1C` (stereo unspecified), the cytotoxicity at 70.5 h is -4.72%. As for `Cc1c(C(=O)NC2=NCCS2)cnn1-c1ccc(Cl)cc1`, the cytotoxicity at 70.5 h was -3.08%. `O=C(Nc1nncs1)N1CCC(CCc2ccc(O)cc2)CC1`: the cytotoxicity at 70.5 h was -14.7%.

As for `CN(CC(O)COc1ccc(C(F)(F)F)cc1)C(=O)Nc1nncs1` (stereo unspecified), the cytotoxicity at 70.5 h was determined as 19.7%. Take `O=C(Nc1nncs1)N1CCC(c2ccc(O)cc2)CC1`: the cytotoxicity at 70.5 h was -4.31%. Consider `CC(=O)Nc1nc(CS(=O)(=O)Cc2ccccc2)cs1`, for which the cytotoxicity at 70.5 h came to 20.1%. Regarding `NC(=O)C1CCN(CCc2ccc(NCc3cccnc3)cc2)CC1`, the cytotoxicity at 70.5 h was 4.26%. Then `CN1CCN(C(=O)C2CCCN2c2ncnc3ccsc23)CC1` (stereo unspecified), with -11.8%; and `CCC(C#N)NC(=O)COC1CCCCC1` (stereo unspecified), with -13.3%.

For the molecule `CN1CC(NC(=O)CCCc2cc(Cl)sc2Cl)CCC1=O` (stereo unspecified), the cytotoxicity at 70.5 h was -6.53%. For the molecule `O=C(CCNS(=O)(=O)c1cccnc1)N1CCOC(c2ccccc2)C1` (stereo unspecified), the cytotoxicity at 70.5 h is -13.3%. Take `CCN(C(c1cccnc1)c1ccc2c(c1)CCC2)S(C)(=O)=O` (stereo unspecified): the cytotoxicity at 70.5 h turned out to be 3.11%.

In the case of `CC/C=C(/C)C(=O)N1CSCC1C(=O)N(C)CCc1ccncc1` (stereo unspecified), the cytotoxicity at 70.5 h is -4.98%. In the case of `CC(NCCN1CCN(C(=O)C2CCCC2)CC1)c1nccs1` (stereo unspecified), the cytotoxicity at 70.5 h came out at 7.3%. For `Cc1cccc(-c2noc(CN3CCc4c(ncn4C4CC4)C3)n2)c1` the value was -13.2%; for `NC(c1ccc(F)cc1)c1cccs1` (stereo unspecified), 6.42%. Then `CCCN(C)C(=O)c1cc(Br)cc(S(=O)(=O)N2CCOCC2)c1F`, with 6.3%.

Take `Cc1cc(Cl)ccc1NCc1cnn(C2CCS(=O)(=O)C2)c1` (stereo unspecified): the cytotoxicity at 70.5 h stood at 5.78%.

Consider `COc1ccc(CNC(=O)NCc2ccc(C)cc2)cn1`, for which the cytotoxicity at 70.5 h was -7.46%. Turning to `COc1ccc(CNC(=O)NCc2ccc(C(N)=O)cc2)cn1`, the cytotoxicity at 70.5 h is -2.22%.

On to `Cc1ncc(CN(C)C(=O)Nc2ccc(CN3CCOC3=O)cc2)s1`, for which the cytotoxicity at 70.5 h was -7.05%. As for `NC(=O)C1CCN(C(=O)CCCc2ccc(Cl)c(Cl)c2)CC1`, the cytotoxicity at 70.5 h was -6.88%. Turning to `Cc1ncc(CN(C)C(=O)Nc2cccc(C(=O)N3CCOCC3)c2)s1`, the cytotoxicity at 70.5 h is -2.6%. As for `Cn1c(=O)oc2ccc(NC(=O)N3CCc4ccccc4C3)cc21`, the cytotoxicity at 70.5 h was determined as 2.84%. For `O=C(NS(=O)(=O)c1ccc(C2CCCCC2)cc1)C1COCCO1` (stereo unspecified), the cytotoxicity at 70.5 h is -4.85%.

Consider `NC(c1ccc(Cl)cc1)c1cccs1` (stereo unspecified), for which the cytotoxicity at 70.5 h was determined as 9.24%. On to `CCOC(=O)c1cnn(C2CCN(C(=O)CC(C)(C)C)CC2)c1N`, for which the cytotoxicity at 70.5 h stood at 4.77%.
